ChEMBL document CHEMBL1145390, “Synthesis and preliminary biological characterization of new semisynthetic derivatives of ramoplanin” (J Med Chem, 2007)
≈ marks a conversion by molar mass, not a printed value.

Key:
[1] = tested on: Enterococcus faecalis; experiment: Antibacterial activity against Enterococcus faecalis after 24 hrs by broth microdilution method; assay type: functional
[2] = tested on: Staphylococcus aureus; experiment: Antibacterial activity against Staphylococcus aureus Smith after 24 hrs by broth microdilution method; assay type: functional
[3] = tested on: Staphylococcus aureus; experiment: Antibacterial activity against methicillin-resistant Staphylococcus aureus clinical isolate after 24 hrs by broth microdilution method; assay type: functional; conditions: read-out: MIC
[4] = tested on: Staphylococcus aureus; experiment: Antibacterial activity against methicillin-resistant and vancomycin-intermediate resistant Staphylococcus aureus clinical isolate after 24 hrs by broth microdilution method; assay type: functional
[5] = tested on: Staphylococcus aureus; experiment: Antibacterial activity against vancomycin-intermediate resistant Staphylococcus aureus clinical isolate after 24 hrs by broth microdilution method; assay type: functional
[6] = tested on: Streptococcus pyogenes; experiment: Antibacterial activity against Streptococcus pyogenes C203 after 24 hrs by broth microdilution method; assay type: functional; conditions: C203, 24 h
[7] = tested on: Enterococcus faecalis; experiment: Antibacterial activity against vancomycin A-resistant Enterococcus faecalis after 24 hrs by broth microdilution method; assay type: functional
[8] = tested on: Enterococcus faecium; experiment: Antibacterial activity against Enterococcus faecium after 24 hrs by broth microdilution method; assay type: functional
[9] = tested on: Enterococcus faecium; experiment: Antibacterial activity against vancomycin A-resistant Enterococcus faecium clinical isolate after 24 hrs by broth microdilution method; assay type: functional
[10] = tested on: Escherichia coli; experiment: Antibacterial activity against Escherichia coli SKF-12140 after 24 hrs by broth microdilution method; assay type: functional
[11] = tested on: Candida albicans; experiment: Antifungal activity against Candida albicans SKF-2270 after 24 hrs by broth microdilution method; assay type: functional
[12] = Toxicity assessed as hemolysis in erythrocytes at 180 mg/L; assay type: cell-based, Erythrocyte; conditions: human; for hemolysis at 180 mg/L: erythrocytes, read-out: Activity
[13] = Toxicity assessed as hemolysis in erythrocytes at 90 mg/L; assay type: cell-based, Erythrocyte; conditions: human; for hemolysis at 90 mg/L: erythrocytes, read-out: Activity

Structure (SMILES) | MIC ([1]; read-out: MIC) | MIC ([2]; read-out: MIC) | MIC [3] | MIC ([4]; read-out: MIC) | MIC [5] | MIC ([6]; read-out: MIC) | MIC ([7]; read-out: MIC) | MIC ([8]; read-out: MIC) | MIC ([9]; read-out: MIC) | MIC ([10]; read-out: MIC) | MIC ([11]; read-out: MIC) | hemolysis at 180 mg/L [12] | hemolysis at 90 mg/L [13] | also measured
CC(C)C[C@@H]1NC(=O)CNC(=O)[C@H](c2ccc(O)cc2)NC(=O)[C@@H]([C@@H](C)O)NC(=O)[C@H](c2ccc(O[C@H]3O[C@H](CO)[C@@H](O)[C@H](O)[C@@H]3O[C@H]3O[C@H](CO)[C@@H](O)[C@H](O)[C@@H]3O)cc2)NC(=O)[C@@H](CCCN)NC(=O)[C@H](Cc2ccccc2)NC(=O)[C@H]([C@@H](C)O)NC(=O)[C@@H](c2ccc(O)cc2)NC(=O)[C@H](c2ccc(O)cc2)NC(=O)[C@@H](C(C)C)NC(=O)[C@@H](CCCN)NC(=O)[C@@H](c2ccc(O)cc2)NC(=O)[C@@H](CNC(=O)[C@H](CC(N)=O)NC(=O)c2ccc(Cl)cc2)[C@@H](C(N)=O)OC(=O)[C@H](c2ccc(O)c(Cl)c2)NC(=O)[C@@H](C)NC1=O | 0.5 µg/mL (≈ 0.195 µM) | 0.5 µg/mL (≈ 0.195 µM) | 1 µg/mL (≈ 0.389 µM) | 4 µg/mL (≈ 1.56 µM) | 2 µg/mL (≈ 0.779 µM) | < 0.03 µg/mL | 0.5 µg/mL (≈ 0.195 µM) | 0.5 µg/mL (≈ 0.195 µM) | 0.5 µg/mL (≈ 0.195 µM) | > 32 µg/mL | > 32 µg/mL | 13% | 5% | 
CC(C)C[C@@H]1NC(=O)CNC(=O)[C@H](c2ccc(O)cc2)NC(=O)[C@@H]([C@@H](C)O)NC(=O)[C@H](c2ccc(O[C@H]3O[C@H](CO)[C@@H](O)[C@H](O)[C@@H]3O[C@H]3O[C@H](CO)[C@@H](O)[C@H](O)[C@@H]3O)cc2)NC(=O)[C@@H](CCCN)NC(=O)[C@H](Cc2ccccc2)NC(=O)[C@H]([C@@H](C)O)NC(=O)[C@@H](c2ccc(O)cc2)NC(=O)[C@H](c2ccc(O)cc2)NC(=O)[C@@H](C(C)C)NC(=O)[C@@H](CCCN)NC(=O)[C@@H](c2ccc(O)cc2)NC(=O)[C@@H](CNC(=O)[C@H](CC(N)=O)NC(=O)CCCc2ccccc2)[C@@H](C(N)=O)OC(=O)[C@H](c2ccc(O)c(Cl)c2)NC(=O)[C@@H](C)NC1=O | 1 µg/mL (≈ 0.388 µM) | 1 µg/mL (≈ 0.388 µM) | 2 µg/mL (≈ 0.776 µM) | 8 µg/mL (≈ 3.11 µM) | 8 µg/mL (≈ 3.11 µM) | ≤ 0.03 µg/mL | 1 µg/mL (≈ 0.388 µM) | 2 µg/mL (≈ 0.776 µM) | 2 µg/mL (≈ 0.776 µM) | > 32 µg/mL | > 32 µg/mL | 0% | 0% | 
CCCCCCCOc1ccc(C(=O)N[C@@H](CC(N)=O)C(=O)NC[C@@H]2C(=O)N[C@H](c3ccc(O)cc3)C(=O)N[C@H](CCCN)C(=O)N[C@H](C(C)C)C(=O)N[C@@H](c3ccc(O)cc3)C(=O)N[C@H](c3ccc(O)cc3)C(=O)N[C@@H]([C@@H](C)O)C(=O)N[C@@H](Cc3ccccc3)C(=O)N[C@H](CCCN)C(=O)N[C@@H](c3ccc(O[C@H]4O[C@H](CO)[C@@H](O)[C@H](O)[C@@H]4O[C@H]4O[C@H](CO)[C@@H](O)[C@H](O)[C@@H]4O)cc3)C(=O)N[C@H]([C@@H](C)O)C(=O)N[C@@H](c3ccc(O)cc3)C(=O)NCC(=O)N[C@@H](CC(C)C)C(=O)N[C@H](C)C(=O)N[C@@H](c3ccc(O)c(Cl)c3)C(=O)O[C@@H]2C(N)=O)cc1 | 2 µg/mL (≈ 0.755 µM) | 8 µg/mL (≈ 3.02 µM) | 4 µg/mL (≈ 1.51 µM) | 16 µg/mL (≈ 6.04 µM) | 8 µg/mL (≈ 3.02 µM) | 2 µg/mL (≈ 0.755 µM) | 2 µg/mL (≈ 0.755 µM) | 2 µg/mL (≈ 0.755 µM) | 1 µg/mL (≈ 0.378 µM) | > 32 µg/mL | > 32 µg/mL | 21% | 0% | 
CCc1ccc(C(=O)N[C@@H](CC(N)=O)C(=O)NC[C@@H]2C(=O)N[C@H](c3ccc(O)cc3)C(=O)N[C@H](CCCN)C(=O)N[C@H](C(C)C)C(=O)N[C@@H](c3ccc(O)cc3)C(=O)N[C@H](c3ccc(O)cc3)C(=O)N[C@@H]([C@@H](C)O)C(=O)N[C@@H](Cc3ccccc3)C(=O)N[C@H](CCCN)C(=O)N[C@@H](c3ccc(O[C@H]4O[C@H](CO)[C@@H](O)[C@H](O)[C@@H]4O[C@H]4O[C@H](CO)[C@@H](O)[C@H](O)[C@@H]4O)cc3)C(=O)N[C@H]([C@@H](C)O)C(=O)N[C@@H](c3ccc(O)cc3)C(=O)NCC(=O)N[C@@H](CC(C)C)C(=O)N[C@H](C)C(=O)N[C@@H](c3ccc(O)c(Cl)c3)C(=O)O[C@@H]2C(N)=O)cc1 | 1 µg/mL (≈ 0.39 µM) | 0.5 µg/mL (≈ 0.195 µM) | 1 µg/mL (≈ 0.39 µM) | 4 µg/mL (≈ 1.56 µM) | > 32 µg/mL | < 0.03 µg/mL | 1 µg/mL (≈ 0.39 µM) | 1 µg/mL (≈ 0.39 µM) | 1 µg/mL (≈ 0.39 µM) | > 32 µg/mL | > 32 µg/mL | 62% | 36% | 
CC(C)C[C@@H]1NC(=O)CNC(=O)[C@H](c2ccc(O)cc2)NC(=O)[C@@H]([C@@H](C)O)NC(=O)[C@H](c2ccc(O[C@H]3O[C@H](CO)[C@@H](O)[C@H](O)[C@@H]3O[C@H]3O[C@H](CO)[C@@H](O)[C@H](O)[C@@H]3O)cc2)NC(=O)[C@@H](CCCN)NC(=O)[C@H](Cc2ccccc2)NC(=O)[C@H]([C@@H](C)O)NC(=O)[C@@H](c2ccc(O)cc2)NC(=O)[C@H](c2ccc(O)cc2)NC(=O)[C@@H](C(C)C)NC(=O)[C@@H](CCCN)NC(=O)[C@@H](c2ccc(O)cc2)NC(=O)[C@@H](CNC(=O)[C@H](CC(N)=O)NC(=O)COc2ccccc2)[C@@H](C(N)=O)OC(=O)[C@H](c2ccc(O)c(Cl)c2)NC(=O)[C@@H](C)NC1=O | 8 µg/mL (≈ 3.12 µM) | 4 µg/mL (≈ 1.56 µM) | 8 µg/mL (≈ 3.12 µM) | 32 µg/mL (≈ 12.5 µM) | 16 µg/mL (≈ 6.24 µM) | 0.06 µg/mL (≈ 0.0234 µM) | 4 µg/mL (≈ 1.56 µM) | 4 µg/mL (≈ 1.56 µM) | 4 µg/mL (≈ 1.56 µM) | > 32 µg/mL | > 32 µg/mL | 0% | 0% | 
CCCCCCCCCCCCCC(=O)N[C@@H](CC(N)=O)C(=O)NC[C@@H]1C(=O)N[C@H](c2ccc(O)cc2)C(=O)N[C@H](CCCN)C(=O)N[C@H](C(C)C)C(=O)N[C@@H](c2ccc(O)cc2)C(=O)N[C@H](c2ccc(O)cc2)C(=O)N[C@@H]([C@@H](C)O)C(=O)N[C@@H](Cc2ccccc2)C(=O)N[C@H](CCCN)C(=O)N[C@@H](c2ccc(O[C@H]3O[C@H](CO)[C@@H](O)[C@H](O)[C@@H]3O[C@H]3O[C@H](CO)[C@@H](O)[C@H](O)[C@@H]3O)cc2)C(=O)N[C@H]([C@@H](C)O)C(=O)N[C@@H](c2ccc(O)cc2)C(=O)NCC(=O)N[C@@H](CC(C)C)C(=O)N[C@H](C)C(=O)N[C@@H](c2ccc(O)c(Cl)c2)C(=O)O[C@@H]1C(N)=O | 4 µg/mL (≈ 1.51 µM) | 16 µg/mL (≈ 6.06 µM) | 16 µg/mL (≈ 6.06 µM) | 32 µg/mL (≈ 12.1 µM) | 32 µg/mL (≈ 12.1 µM) | 4 µg/mL (≈ 1.51 µM) | 4 µg/mL (≈ 1.51 µM) | 8 µg/mL (≈ 3.03 µM) | 4 µg/mL (≈ 1.51 µM) | > 32 µg/mL | > 32 µg/mL | 59% | 2% | 
CCCCCCCC(=O)N[C@@H](CC(N)=O)C(=O)NC[C@@H]1C(=O)N[C@H](c2ccc(O)cc2)C(=O)N[C@H](CCCN)C(=O)N[C@H](C(C)C)C(=O)N[C@@H](c2ccc(O)cc2)C(=O)N[C@H](c2ccc(O)cc2)C(=O)N[C@@H]([C@@H](C)O)C(=O)N[C@@H](Cc2ccccc2)C(=O)N[C@H](CCCN)C(=O)N[C@@H](c2ccc(O[C@H]3O[C@H](CO)[C@@H](O)[C@H](O)[C@@H]3O[C@H]3O[C@H](CO)[C@@H](O)[C@H](O)[C@@H]3O)cc2)C(=O)N[C@H]([C@@H](C)O)C(=O)N[C@@H](c2ccc(O)cc2)C(=O)NCC(=O)N[C@@H](CC(C)C)C(=O)N[C@H](C)C(=O)N[C@@H](c2ccc(O)c(Cl)c2)C(=O)O[C@@H]1C(N)=O |  |  | 0.0005 µg/mL (≈ 0.000196 µM) |  | 0.002 µg/mL (≈ 0.000782 µM) |  |  |  |  |  |  |  |  | MIC [1]: 0.125 µg/mL (≈ 0.0489 µM); MIC [2]: 0.25 µg/mL (≈ 0.0978 µM); MIC [4]: 4 µg/mL (≈ 1.56 µM); MIC [6]: < 0.03 µg/mL; MIC [7]: 0.06 µg/mL (≈ 0.0235 µM); MIC [8]: 0.25 µg/mL (≈ 0.0978 µM); MIC [9]: 0.125 µg/mL (≈ 0.0489 µM); MIC [10]: > 32 µg/mL; MIC [11]: > 32 µg/mL; Activity ([12]; erythrocyte): 16%; Activity ([13]; erythrocyte): 0%
